This is an account of results in publication PMC7997369, “Assessment of the Multifunctional Behavior of Lupin Peptide P7 and Its Metabolite Using an Integrated Strategy” (Journal of Agricultural and Food Chemistry, 2020).

No end group written: not given here.

Test [1] concerns the target T1, HMGCoAR (catalytic domain) (Homo sapiens, UniProt P04035).
T1 construct: finally the HMGCoAR (catalytic domain) (2 µL); purchased Sigma
T1 sequence (P04035 426-888 limits assumed): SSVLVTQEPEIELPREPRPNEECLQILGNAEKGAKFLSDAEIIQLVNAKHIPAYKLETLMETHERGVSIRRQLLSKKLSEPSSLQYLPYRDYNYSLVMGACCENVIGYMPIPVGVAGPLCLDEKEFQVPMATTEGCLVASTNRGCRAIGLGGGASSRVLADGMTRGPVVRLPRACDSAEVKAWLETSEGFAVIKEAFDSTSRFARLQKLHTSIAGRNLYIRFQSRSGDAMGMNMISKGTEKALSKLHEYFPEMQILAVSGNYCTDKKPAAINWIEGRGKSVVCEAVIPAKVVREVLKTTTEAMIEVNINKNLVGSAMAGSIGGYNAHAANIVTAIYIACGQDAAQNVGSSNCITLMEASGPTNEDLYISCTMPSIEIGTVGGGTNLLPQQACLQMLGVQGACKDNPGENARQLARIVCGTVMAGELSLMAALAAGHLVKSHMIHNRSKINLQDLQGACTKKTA
Conditions: read-out: IC50, in vitro HMGCoAR activity; cited from earlier work. An excerpt: To express their activity in vivo, peptides masked within a protein sequence need not only be released by specific and selective proteases but may also be absorbed at the intestinal level and enter blood circulation to reach the target organs.[2] Differentiated Caco-2 cells still represent the best available model system for intestinal transport studies.[3]−[5] […] To function as a competitive inhibitor of HMGCoAR, a peptide should mimic the hydroxymethylglutaryl moiety. To achieve this goal, the conformation and side chain groups play a more important role than the total hydrophobicity. Moreover, the correlation of the inhibitory activity with the peptide length has not yet been established, while it has been confirmed that a ...

Test [2] has as its target T2, angiotensin-converting enzyme (ACE) (Homo sapiens, UniProt P12821). The test can be described thus: Cellular ACE inhibitory assay in renal HK-2 cells. The arrangement: endogenous in cells. The note with it: HK-2 cells treated 24 h at 37 °C with P7 0.1–250 μM; ACE activity in cell lysates, fluorescent Abz substrate; mean ± sd of three independent experiments in triplicate. The class given is cell-based. As to the method: (§1) HK-2 cells from the American Type Culture Collection (ATCC) were cultured using Dulbecco’s modified Eagle’s medium–F12 (DMEM–F12) containing 25 mM glucose, 4 mM stable L-glutamine, 100 units […] penicillin, and 100 μg […] streptomycin, supplemented with 10% heat-inactivated fetal bovine serum (FBS, Hyclone Laboratories, Logan, UT, U.S.A.). […]
(§2) For the experiments, HK-2 and Caco-2 cells were seeded on 96-well plates at a density of 5 × 10^4 cells/well for 24 h. […] Total proteins were quantified by the Bradford method, and 2 μL of the supernatant (the equivalent of 2 μg of total proteins) was added to 18 μL of ACE1 lysis buffer in each well in a black 96-well plate with a clear bottom. […] Then, 20 μL of diluted ACE1 substrate [o-aminobenzoyl peptide (Abz-based peptide) substrate, 4% of ACE1 substrate in the assay buffer] was added in each well, except the background well, and the fluorescence (excitation/emission of 330/430 nm) was measured in a kinetic mode for 10 min at 37 °C.

Test [3] concerns the target T2, angiotensin-converting enzyme (ACE). The test can be described thus: Cellular ACE inhibitory assay in undifferentiated intestinal Caco-2 cells. The format is cell-based. Also on record: endogenous in cells; host or cells: Caco-2 cells (INSERM, Paris). The note with it: Caco-2 cells treated 24 h at 37 °C with P7 0.1–250 μM; ACE activity in cell lysates, fluorescent Abz substrate; mean ± sd of three independent experiments in triplicate. The procedure:
as §1, §2

T2 sequence (P12821 30-1306): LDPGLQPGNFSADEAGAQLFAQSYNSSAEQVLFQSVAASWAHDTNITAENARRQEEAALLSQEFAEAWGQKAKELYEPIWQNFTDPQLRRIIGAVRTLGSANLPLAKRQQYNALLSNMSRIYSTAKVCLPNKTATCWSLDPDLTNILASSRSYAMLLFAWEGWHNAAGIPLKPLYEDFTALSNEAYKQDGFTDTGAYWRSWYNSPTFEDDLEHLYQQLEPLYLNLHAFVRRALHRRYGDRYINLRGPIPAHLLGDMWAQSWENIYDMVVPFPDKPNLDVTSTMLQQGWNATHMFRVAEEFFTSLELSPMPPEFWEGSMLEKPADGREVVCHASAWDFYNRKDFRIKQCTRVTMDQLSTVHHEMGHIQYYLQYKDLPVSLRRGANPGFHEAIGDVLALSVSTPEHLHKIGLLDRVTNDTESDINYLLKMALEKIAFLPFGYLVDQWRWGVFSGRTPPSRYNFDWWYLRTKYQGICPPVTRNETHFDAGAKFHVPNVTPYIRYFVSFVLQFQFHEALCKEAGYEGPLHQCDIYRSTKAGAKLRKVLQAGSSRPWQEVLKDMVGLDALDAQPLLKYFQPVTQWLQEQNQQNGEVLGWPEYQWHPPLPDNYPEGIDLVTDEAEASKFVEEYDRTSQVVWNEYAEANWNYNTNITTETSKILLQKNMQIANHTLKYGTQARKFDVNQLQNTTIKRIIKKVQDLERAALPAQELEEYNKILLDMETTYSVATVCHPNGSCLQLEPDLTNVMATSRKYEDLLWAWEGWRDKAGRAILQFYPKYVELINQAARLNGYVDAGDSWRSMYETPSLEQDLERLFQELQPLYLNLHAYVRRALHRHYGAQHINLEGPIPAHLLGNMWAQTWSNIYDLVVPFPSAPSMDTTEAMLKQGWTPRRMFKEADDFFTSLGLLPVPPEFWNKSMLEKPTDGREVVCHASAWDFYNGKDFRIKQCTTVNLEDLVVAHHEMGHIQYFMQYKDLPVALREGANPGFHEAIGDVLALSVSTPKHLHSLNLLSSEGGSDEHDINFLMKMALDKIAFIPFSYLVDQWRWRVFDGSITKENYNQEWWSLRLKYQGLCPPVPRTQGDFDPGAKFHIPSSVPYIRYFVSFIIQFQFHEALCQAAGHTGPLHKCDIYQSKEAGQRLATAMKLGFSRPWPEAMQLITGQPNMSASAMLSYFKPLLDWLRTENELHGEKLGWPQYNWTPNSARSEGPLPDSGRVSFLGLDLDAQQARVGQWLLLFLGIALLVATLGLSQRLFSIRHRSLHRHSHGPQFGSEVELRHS

By IC50 is commonly meant the point on the concentration scale where inhibition reaches its midpoint. Regarding LTFPGSAED [P7], the IC50 was 68.4 µM in test [1], 79.6 µM in test [2] and 13.7 µM in test [3].
